Test [1] addresses Glycogen synthase kinase-3 beta (Homo sapiens, UniProt P49841). As to the kind of experiment: TR-FRET Assay. The method, boiled down: (§1)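 Signal is measured as TR-FRET between a terbium anti-phospho-Ser641 antibody and streptavidin-d2, added after an EDTA quench. Compounds are preincubated 30 min in assay buffer.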
Test [2] has as its target Glycogen synthase kinase-3 alpha (Homo sapiens, UniProt P49840). As to the kind of experiment: TR-FRET Assay. In outline: as §1
On the technique in general: Time-resolved FRET reads energy transfer from a long-lived donor to a nearby acceptor.

“And” between values parts separate entries of the source, which are not always exact repeats. Equal entries are not always repeated.

Here are results for 46 molecules from BindingDB's records for patent US20250313563 (The Broad Institute, 2025).

Sequence of Glycogen synthase kinase-3 beta (P49841 whole entry): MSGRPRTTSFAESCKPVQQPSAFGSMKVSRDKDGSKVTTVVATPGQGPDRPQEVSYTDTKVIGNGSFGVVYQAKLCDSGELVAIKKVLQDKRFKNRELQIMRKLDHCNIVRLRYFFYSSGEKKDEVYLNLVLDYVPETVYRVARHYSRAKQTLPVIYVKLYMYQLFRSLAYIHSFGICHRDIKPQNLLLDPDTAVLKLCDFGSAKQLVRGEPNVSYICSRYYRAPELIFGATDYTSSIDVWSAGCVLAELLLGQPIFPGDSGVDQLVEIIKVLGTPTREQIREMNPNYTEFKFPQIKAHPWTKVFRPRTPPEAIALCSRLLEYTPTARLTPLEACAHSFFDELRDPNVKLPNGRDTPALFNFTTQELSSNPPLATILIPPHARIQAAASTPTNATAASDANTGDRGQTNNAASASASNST
Sequence of Glycogen synthase kinase-3 alpha (P49840 whole entry): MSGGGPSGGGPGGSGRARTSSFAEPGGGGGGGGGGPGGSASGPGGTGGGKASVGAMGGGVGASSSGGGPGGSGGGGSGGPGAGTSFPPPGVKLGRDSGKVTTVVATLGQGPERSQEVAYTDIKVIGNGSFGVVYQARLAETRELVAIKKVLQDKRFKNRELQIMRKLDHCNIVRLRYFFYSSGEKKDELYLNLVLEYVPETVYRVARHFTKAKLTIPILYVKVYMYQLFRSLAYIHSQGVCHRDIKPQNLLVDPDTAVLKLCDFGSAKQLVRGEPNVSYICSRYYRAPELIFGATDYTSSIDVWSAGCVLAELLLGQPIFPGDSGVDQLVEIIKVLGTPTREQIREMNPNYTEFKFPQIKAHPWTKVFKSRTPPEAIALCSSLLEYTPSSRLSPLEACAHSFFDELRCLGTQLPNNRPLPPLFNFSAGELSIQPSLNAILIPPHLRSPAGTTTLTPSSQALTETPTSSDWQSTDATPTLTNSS

One may read the IC50 as the concentration that inhibits the measured activity by half. Read a low IC50 as greater potency in that assay. As for `CC1(C)CC(=O)C2=C(C1)NC1=C(CN=N1)C21CN(S(=O)(=O)c2ccc(F)cc2)C1` [US20250313563, Compound 917144], the IC50 in test [1] and in test [2] was less than 0.1 µM each time.

For the molecule `CC[C@]1(c2cccc(-c3ccnn3C)c2)C2=CN=NC2NC2=C1C(=O)NC(C)(C)C2` (some centres not stated) [US20250313563, Compound 927389], the IC50 in test [1] is < 0.1 µM and 1 to 5 µM; in test [2], < 0.1 µM and 0.1 to 1 µM.

In the case of `CC1(C)CC(=O)C2=C(C1)NC1=C(CN=N1)[C@]21CCCOCC1` [US20250313563, Compound 874535], the half-inhibitory concentration (IC50) in test [1] and in test [2] was less than 0.1 µM in each case.

`CC1(C)CC(=O)C2=C(NC3=C(CN=N3)C23CCCCC3)[C@@H]1F` [US20250313563, Compound 951705]: the IC50 in test [1] and in test [2] was less than 0.1 µM in each case.

`CC[C@]1(c2cccc(C(F)(F)F)c2)C2=CN=NC2NC2=C1C(=O)N(CCOC)CC2` (some centres not stated) [US20250313563, Compound 949599]: the IC50 in test [1] and in test [2] was 0.1 to 1 µM each time.

With `CC1(C)CC(=O)C2=C(C1)NC1=C(CN=N1)C2(C)c1cc(Cl)ccc1F` (configuration not stated) [US20250313563, Compound 810377], the IC50 in test [1] lay in the range of 1 to 5 µM; in test [2] it was 0.1 to 1 µM.

Regarding `CC(C)(C)CC1N=NC2=C1[C@](C)(c1cccc(S(=O)(=O)C(F)(F)F)c1)C1=C(CC(C)(C)CC1=O)N2` (some centres not stated) [US20250313563, Compound 126395], the concentration for half-maximal inhibition (IC50) in test [1] was in the range of 0.1 to 1 µM; in test [2], 1 to 5 µM.

With `CCC1(c2cccc(-c3ccnc4c3CCCC4)c2)C2=CN=NC2NC2=C1C(=O)CC(C)(C)C2` (configuration not stated) [US20250313563, Compound 932625], the IC50 in test [1] and in test [2] was less than 0.1 µM in each case.

For the molecule `CC[C@]1(c2cccc(C3=C4CC=C(OC)C=C4N=CC3)c2)C2=CN=NC2NC2=C1C(=O)NC(C)(C)C2` (some centres not stated) [US20250313563, Compound 948661], the IC50 in test [1] is 0.1 to 1 µM; in test [2], less than 0.1 µM.

Regarding `COc1cccc(S(=O)(=O)N2CC[C@@]3(C2)C2=C(N=NC2)NC2=C3C(=O)CC(C)(C)C2)c1` [US20250313563, Compound 951789], the IC50 in test [1] and in test [2] was 0.1 to 1 µM in each case.

With `CCC1(c2cccc(C3CN(C(C)=O)C3)c2)C2=CN=NC2NC2=C1C(=O)CC(C)(C)C2` (configuration not stated) [US20250313563, Compound 948779], the IC50 is greater than 5 µM in test [1] and 1 to 5 µM in test [2].

Regarding `CC(=O)N1CC2(C1)C1=C(N=NC1)NC1=C2C(=O)CC(C)(C)C1` [US20250313563, Compound 893314], the IC50 in test [1] is greater than 5 µM; in test [2], 1 to 5 µM.

With `CC[C@@]1(c2cccc(NS(C)(=O)=O)c2)C2=CN=NC2NC2=C1C(=O)CC(C)(C)C2` (some centres not stated) [US20250313563, Compound 927348], the IC50 in test [1] and in test [2] was less than 0.1 µM in each case.

With `CC[C@]1(c2cccc(-c3ccncc3F)c2)C2=C(CC(C)(C)CC2=O)NC2N=NC(C(F)(F)F)=C21` (some centres not stated) [US20250313563, Compound 947326], the half-inhibitory concentration (IC50) in test [1] and in test [2] was less than 0.1 µM throughout.

Take `CC[C@]1(c2cccc(C(F)(F)F)c2)C2=C(N=NC2)NC2=C1C(=O)N(Cc1ccccc1)C2` [US20250313563, Compound 929388]: the IC50 in test [1] is 0.1 to 1 µM; in test [2] it was < 0.1 µM and 0.1 to 1 µM.

As to `C[C@@H]1C[C@@]2(CCN1S(=O)(=O)c1ccn(C)n1)C1=C(N=NC1)NC1=C2C(=O)CC(C)(C)C1` [US20250313563, Compound 917160], the IC50 in test [1] and in test [2] was 0.1 to 1 µM throughout.

Regarding `CC[C@@]1(c2ccccc2)C2=CN=NC2NC2=C1C(=O)C[C@H](c1ccccc1)C2` (some centres not stated) [US20250313563, Compound 791264], the values for the IC50 in test [1] and in test [2] were greater than 5 µM and 0.1 to 1 µM, respectively.

As to `Cn1cc(S(=O)(=O)N2CC[C@@]3(C2)C2=C(N=NC2)NC2=C3C(=O)CC(C)(C)C2)cn1` [US20250313563, Compound 951725], the values for the IC50 in test [1] and in test [2] were 1 to 5 µM and 0.1 to 1 µM, respectively.

On to `CC[C@@]1(c2cccc(-c3c(C#N)c(C)nn3C)c2)C2=CN=NC2NC2=C1C(=O)NC(C)(C)C2` (some centres not stated) [US20250313563, Compound 951844], for which the IC50 in test [1] was 0.1 to 1 µM; in test [2], less than 0.1 µM.

Turning to `Cc1nccc([C@H]2CC[C@]3(CC2)C2=C(N=NC2)NC2=C3C(=O)CC(C)(C)C2)c1C` [US20250313563, Compound 950478], the IC50 in test [1] and in test [2] was less than 0.1 µM throughout.

As for `CC[C@]1(c2cccc(-c3ccnc(C)c3)c2)C2=CN=NC2NC2=C1C(=O)[C@@H](F)C(C)(C)C2` (some centres not stated) [US20250313563, Compound 945486], the IC50 in test [1] was greater than 5 µM; in test [2], 1 to 5 µM.

In the case of `CCC1(c2cccc(C(F)(F)F)c2)C2=CN=NC2NC2=C1C(=O)NC(c1ccccc1)C2` (configuration not stated) [US20250313563, Compound 917284], the IC50 is 1 to 5 µM in test [1] and 0.1 to 1 µM in test [2].

On to `CC[C@]1(c2cccc(Cc3ncccc3C(F)(F)F)c2)C2=CN=NC2NC2=C1C(=O)CC(C)(C)C2` (some centres not stated) [US20250313563, Compound 947664], for which the concentration for half-maximal inhibition (IC50) was 0.1 to 1 µM in test [1] and less than 0.1 µM in test [2].

Take `CC1(C)CC(=O)C2=C(C1)NC1N=NC(C3(C(F)(F)F)CC3)=C1C21CCc2c(F)cccc21` (configuration not stated) [US20250313563, Compound 810591]: the IC50 in test [1] and in test [2] was 0.1 to 1 µM throughout.

Turning to `CN(C)S(=O)(=O)c1cccc([C@]2(C)C3=C(CC(C)(C)CC3=O)NC3=C2C(CC(C)(C)C)N=N3)c1` (some centres not stated) [US20250313563, Compound 126012], the IC50 in test [1] was in the range of 0.1 to 1 µM; in test [2] it was 1 to 5 µM.

Consider `CCC1(c2ccccc2)C2=C(N=NC2)NC(C)=C1C(C)=O` (configuration not stated) [US20250313563, Compound 806940], for which the 50% inhibitory concentration (IC50) in test [1] and in test [2] was greater than 5 µM each time.

With `CC[C@@]1(c2cccc(-c3c(C)c(C)nn3C)c2)C2=CN=NC2NC2=C1C(=O)NC(C)(C)C2` (some centres not stated) [US20250313563, Compound 950062], the IC50 was 0.1 to 1 µM in test [1] and less than 0.1 µM in test [2].

`Cn1cc(-c2cccc([C@]3(C)C4=C(CC(C)(C)CC4=O)NC4=C3C(CC(C)(C)C)N=N4)c2)cn1` (some centres not stated) [US20250313563, Compound 126393]: the IC50 was in the range of 0.1 to 1 µM in test [1] and 1 to 5 µM in test [2].

Regarding `CC[C@]1(c2cccc(-c3cnn(C)c3)c2)C2=C(CC(C)(C)NC2=O)NC2N=NC(C(F)(F)F)=C21` (some centres not stated) [US20250313563, Compound 947871], the IC50 was 0.1 to 1 µM in test [1] and less than 0.1 µM in test [2].

For the molecule `CC1(C)CC(=O)C2=C(C1)NC1N=NC(CCC(F)(F)F)=C1C21CCc2c(F)cccc21` (configuration not stated) [US20250313563, Compound 841868], the IC50 in test [1] and in test [2] was 0.1 to 1 µM throughout.

`CCN(c1cccc(C2(CC)C3=CN=NC3NC3=C2C(=O)CC(C)(C)C3)c1)c1cccnc1C` (configuration not stated) [US20250313563, Compound 885367]: the values for the IC50 in test [1] and in test [2] were 1 to 5 µM and 0.1 to 1 µM, respectively.

Consider `CC[C@]1(c2cccc(-c3cnn4c3CCCC4)c2)C2=C(CC(C)(C)NC2=O)NC2N=NC(C)=C21` (some centres not stated) [US20250313563, Compound 947809], for which the values for the IC50 in test [1] and in test [2] were 1 to 5 µM and 0.1 to 1 µM, respectively.

In the case of `Cc1cccc(C2(C)C3=C(N=NC3)NC3=C2C(=O)CC(C)(C)C3)c1` (configuration not stated) [US20250313563, Compound 785736], the IC50 was 0.1 to 1 µM in test [1] and less than 0.1 µM in test [2].

Consider `CC1(C)CC(=O)C2=C(C1)NC1=C(CN=N1)[C@@]21COC2(CN(C(=O)Cc3ccccc3)C2)C1` [US20250313563, Compound 948037], for which the IC50 in test [1] and in test [2] was less than 0.1 µM throughout.

With `CCC1(c2cccc(N3CCCC[C@H]3C)c2)C2=CN=NC2NC2=C1C(=O)CC(C)(C)C2` (some centres not stated) [US20250313563, Compound 885228], the IC50 in test [1] was 0.1 to 1 µM; in test [2], less than 0.1 µM.

In the case of `CC[C@]1(c2cccc(C(F)(F)F)c2)C2=CN=NC2NC2=C1C(=O)CC1(CCCC1)C2` (some centres not stated) [US20250313563, Compound 801311], the concentration for half-maximal inhibition (IC50) in test [1] was < 0.1 µM and 0.1 to 1 µM; in test [2] it was less than 0.1 µM.

For the molecule `CC(C)(C)CC1=C2C(N=N1)NC1=C(C(=O)CC(C)(C)C1)[C@@]21CCCc2ccccc21` (some centres not stated) [US20250313563, Compound 811596], the values for the IC50 in test [1] and in test [2] were 0.1 to 1 µM and 1 to 5 µM, respectively.

As to `CC[C@@]1(c2cccc(Cc3ncccn3)c2)C2=CN=NC2NC2=C1C(=O)CC(C)(C)C2` (some centres not stated) [US20250313563, Compound 947499], the half-maximal inhibitory concentration (IC50) in test [1] is greater than 5 µM; in test [2], 1 to 5 µM and > 5 µM.

Turning to `CC[C@@]1(c2cccc(-c3ccnc4ccncc34)c2)C2=CN=NC2NC2=C1C(=O)NC(C)(C)C2` (some centres not stated) [US20250313563, Compound 952910], the IC50 was 0.1 to 1 µM and > 5 µM in test [1]; < 0.1 µM and 0.1 to 1 µM in test [2].

In the case of `CC[C@@H]1C[C@@]2(CO1)C1=C(N=NC1)NC1=C2C(=O)CC(C)(C)C1` [US20250313563, Compound 913215], the IC50 in test [1] was 1 to 5 µM; in test [2] it was 0.1 to 1 µM.

`CC[C@]1(c2cccc(-c3cc(C)ncc3OC)c2)C2=CN=NC2NC2=C1C(=O)NC(C)(C)C2` (some centres not stated) [US20250313563, Compound 949522]: the results for the concentration for half-maximal inhibition (IC50) in test [1] and in test [2] were 0.1 to 1 µM and less than 0.1 µM, respectively.

`CCC1(c2cccc(S(=O)(=O)C(C)C)c2)C2=CN=NC2NC2=C1C(=O)CC(C)(C)C2` (configuration not stated) [US20250313563, Compound 912169]: the IC50 in test [1] and in test [2] was less than 0.1 µM throughout.

`CC[C@]1(c2cccc(-c3ccnc(C)c3)c2)C2=C(CC(C)(C)CC2=O)NC2N=NC(C(F)(F)F)=C21` (some centres not stated) [US20250313563, Compound 917291]: the IC50 in test [1] was < 0.1 µM and 0.1 to 1 µM; in test [2], less than 0.1 µM.

With `CC1(C)CC(=O)C2=C(C1)NC1=C(CN=N1)C21CCc2c(F)cccc21` (configuration not stated) [US20250313563, Compound 801357], the IC50 in test [1] is greater than 1.67 µM; in test [2] it was 0.1 to 1 µM.

On to `CC1(C)CC(=O)C2=C(C1)NC1N=NC=C1[C@]21CCCN(S(=O)(=O)Cc2ccccc2)CC1` (some centres not stated) [US20250313563, Compound 945483], for which the half-inhibitory concentration (IC50) in test [1] and in test [2] was 0.1 to 1 µM each time.

Regarding `CC[C@]1(c2cccc(C(C)C)c2)C2=CN=NC2NC2=C1C(=O)NC(C)(C)C2` (some centres not stated) [US20250313563, Compound 949761], the 50% inhibitory concentration (IC50) in test [1] and in test [2] was 0.1 to 1 µM in each case.
